Non-standard residues stand in square brackets, D forms with d. Residues, ends and D or L forms follow the SMILES beside them. *: point of attachment. Phe(4-CONH2) = NC(=O)c1ccc(C[C@H](N)C(=O)O)cc1; Phe(4-CH2NH2) = NCc1ccc(C[C@H](N)C(=O)O)cc1; Lys(Me2) = CN(C)CCCC[C@H](N)C(=O)O; Hydrocinnamoyl = O=C(CCc1ccccc1)*; Cit = NC(=O)NCCC[C@H](N)C(=O)O; hLys = NCCCCC[C@H](N)C(=O)O; Dab = NCC[C@H](N)C(=O)O; PhAc = O=C(Cc1ccccc1)*; NHCH2CH2OH = OCCN*
experiment: Inhibition of 6-His tagged-G4SG4 fused ZIKV NS2B (49 to 95 residues) R95A mutant-NS3 (1 to 170 residue) R29G mutant expressed in Escherichia coli BL21 (DE3) using Bz-Nle-K-RR-AMC substrate preincubated for 10 mins followed by substrate addition and measured after 30 mins by fluorescence assay; parameters: species or system Zika virus

| SMILES | IC50 [µM] |
| --- | --- |
| NCCCC[C@H](NC(=O)c1ccccc1)C(=O)N[C@@H](CCCCN)C(=O)N[C@H](C(=O)NCc1ccccc1)c1ccc(OCc2ccc(C(F)(F)F)cc2)cc1 | 0.09 |
| N=C(N)NCCC[C@H](NC(=O)c1cccs1)C(=O)N[C@@H](CCCCN)C(=O)NC(C(N)=O)c1cccc(OCc2ccc(C(F)(F)F)cc2)c1 (mixture of isomers) | 6.4 |
| N=C(N)NCCC[C@H](NC(=O)[C@H](CCCNC(N)=O)NC(=O)[C@H](CCCCN)NC(=O)Cc1ccccc1)C(N)=O (PhAc-Lys-[Cit]-Arg-NH2) | > 100 |
| N=C(N)NCCC[C@H](NC(=O)c1cccs1)C(=O)N[C@@H](CCCCN)C(=O)N[C@@H](C(N)=O)c1ccc(OCc2ccc(C(F)(F)F)cc2)cc1 | 1.6 |
| N=C(N)NCCC[C@H](NC(=O)[C@H](CCCCN)NC(=O)[C@H](CCCCN)NC(=O)C(F)c1ccccc1)C(N)=O (mixture of isomers) | 4.94 |
| N#Cc1ccc(COc2ccc([C@H](NC(=O)[C@H](CCCCN)NC(=O)[C@H](CCCNC(=N)N)NC(=O)c3cccs3)C(N)=O)cc2)cc1 | 27.3 |
| N=C(N)NCCC[C@H](NC(=O)[C@H](CCCCN)NC(=O)[C@H](Cc1ccc(CN)cc1)NC(=O)Cc1ccccc1)C(N)=O (PhAc-[Phe(4-CH2NH2)]-Lys-Arg-NH2) | 8.57 |
| NCCCC[C@H](NC(=O)Cc1ccccc1)C(=O)N[C@@H](CCCCN)C(=O)N[C@@H](C(=O)NCc1ccccc1)c1ccccc1 | 1.9 |
| N=C(N)NCCC[C@H](NC(=O)[C@H](CC1CCNCC1)NC(=O)[C@H](CCCCN)NC(=O)Cc1ccccc1)C(N)=O | 12.2 |
| N=C(N)NCCC[C@H](NC(=O)c1cccs1)C(=O)N[C@@H](CCCCN)C(=O)N[C@H](C(N)=O)c1ccc(OCc2ccccc2)cc1 | 7.6 |
| NCCCC[C@H](NC(=O)Cc1ccccc1)C(=O)N[C@@H](CCCCN)C(=O)N[C@H](C(=O)NCc1ccc2c(c1)OCO2)c1ccc(OCc2ccc(C(F)(F)F)cc2)cc1 | 0.06 |
| N=C(N)NCCC[C@H](NC(=O)Cc1ccccc1)C(=O)N[C@@H](CCCCN)C(=O)N[C@H](C(N)=O)c1ccc(OCc2ccc(C(F)(F)F)cc2)cc1 | 31.8 |
| CN(C)CCCC[C@H](NC(=O)[C@H](CCCCN)NC(=O)Cc1ccccc1)C(=O)N[C@@H](CCCNC(=N)N)C(N)=O (PhAc-Lys-[Lys(Me2)]-Arg-NH2) | 25.1 |
| NCCCC[C@H](NC(=O)Cc1ccccc1)C(=O)N[C@@H](CCCCN)C(=O)N[C@H](C(=O)NCC1CCCCC1)c1ccccc1 | 0.69 |
| N=C(N)NCCC[C@H](NC(=O)[C@H](CCN)NC(=O)[C@H](CCCCN)NC(=O)Cc1ccccc1)C(N)=O (PhAc-Lys-[Dab]-Arg-NH2) | 0.45 |
| CC(=O)N[C@@H](CCCCN)C(=O)N[C@@H](CCCCN)C(=O)N[C@@H](CCCNC(=N)N)C(N)=O (Ac-Lys-Lys-Arg-NH2) | 8.4 |
| N=C(N)NCCC[C@H](NC(=O)c1cccs1)C(=O)N[C@@H](CCCCN)C(=O)N[C@H](C(N)=O)c1ccc(OCC2CCCCC2)cc1 | 10.8 |
| N=C(N)NCCC[C@H](NC(=O)[C@H](CCCCN)NC(=O)[C@H](CCCCN)NC(=O)Cc1nccs1)C(N)=O | 22.7 |
| N=C(N)NCCC[C@H](NC(=O)[C@H](Cc1ccc(C(N)=O)cc1)NC(=O)[C@H](CCCCN)NC(=O)Cc1ccccc1)C(N)=O (PhAc-Lys-[Phe(4-CONH2)]-Arg-NH2) | > 100 |
| N=C(N)NCCC[C@H](NC(=O)[C@H](CCCCN)NC(=O)[C@H](CCCCN)NC(=O)Cc1ccc(-c2ccccc2)cc1)C(N)=O | 1.55 |
| NCCCC[C@H](NC(=O)c1cccs1)C(=O)N[C@@H](CCCCN)C(=O)N[C@H](C(=O)NCc1ccc(OCc2ccc(C(F)(F)F)cc2)cc1)c1ccccc1 | 0.2 |
| NCCCC[C@H](NC(=O)Cc1ccccc1)C(=O)N[C@@H](CCCCN)C(=O)N[C@H](C(=O)NCc1cccnc1)c1ccc(OCc2ccc(C(F)(F)F)cc2)cc1 | 0.28 |

| SMILES | IC50 [µM] |
| --- | --- |
| CC(NC(=O)[C@H](CCCCN)NC(=O)[C@H](CCCNC(=N)N)NC(=O)c1cccs1)c1ccc(OCc2ccc(C(F)(F)F)cc2)cc1 (mixture of isomers) | 10.9 |
| NCCCC[C@H](NC(=O)CC1CCCCC1)C(=O)N[C@@H](CCCCN)C(=O)N[C@H](C(=O)NCc1ccccc1)c1ccc(OCc2ccc(C(F)(F)F)cc2)cc1 | 0.15 |
| NCCCC[C@H](NC(=O)Cc1ccccc1)C(=O)N[C@@H](CCCCN)C(=O)N[C@H](C(=O)NCC1CCCCC1)c1ccc(OCc2ccc(C(F)(F)F)cc2)cc1 | 0.08 |
| N=C(N)NCCC[C@H](NC(=O)c1cccs1)C(=O)N[C@@H](CCCCN)C(=O)N[C@H](C(N)=O)c1ccc(OCCN2CCCCC2)cc1 | 3 |
| N=C(N)NCCC[C@H](NC(=O)[C@H](CCCCCN)NC(=O)[C@H](CCCCN)NC(=O)Cc1ccccc1)C(N)=O (PhAc-Lys-[hLys]-Arg-NH2) | 2.7 |
| CNC(=O)[C@@H](NC(=O)[C@H](CCCCN)NC(=O)[C@H](CCCCN)NC(=O)Cc1ccccc1)c1ccc(OCc2ccc(C(F)(F)F)cc2)cc1 | 2.8 |
| N=C(N)NCCC[C@H](NC(=O)[C@H](CCCCN)NC(=O)[C@H](Cc1ccccc1)NC(=O)Cc1ccccc1)C(N)=O (PhAc-Phe-Lys-Arg-NH2) | 35 |
| N=C(N)NCCC[C@H](NC(=O)[C@H](CCCCN)NC(=O)[C@H](Cc1cccc(CN)c1)NC(=O)Cc1ccccc1)C(N)=O | 37.5 |
| N=C(N)NCCC[C@H](NC(=O)[C@H](CCCCN)NC(=O)[C@H](CCCCN)NC(=O)CCc1ccccc1)C(N)=O (Hydrocinnamoyl-Lys-Lys-Arg-NH2) | 9.35 |
| CN1CCC(CNC(=O)[C@H](CCCNC(=N)N)NC(=O)[C@H](CCCCN)NC(=O)[C@H](CCCCN)NC(=O)Cc2ccccc2)CC1 | 7.8 |
| N=C(N)NCCC[C@H](NC(=O)[C@H](CCCCN)NC(=O)[C@H](CCCCN)NC(=O)Cc1cccnc1)C(N)=O | 4.49 |
| N=C(N)NCCC[C@H](NC(=O)c1cccs1)C(=O)N[C@@H](CCCCN)C(=O)N[C@H](C(N)=O)c1ccc(OCc2ccccc2C(F)(F)F)cc1 | 7.1 |
| N=C(N)NCCC[C@H](NC(=O)[C@H](CCCCN)NC(=O)[C@H](CCCCN)NC(=O)Cc1ccccc1)C(=O)O (PhAc-Lys-Lys-Arg-OH) | 41 |
| N=C(N)NCCC[C@H](NC(=O)c1cccs1)C(=O)N[C@@H](CCCCN)C(=O)N[C@H](C(N)=O)c1ccc(OCc2ccc3[nH]ncc3c2)cc1 | 5.3 |
| CCOc1ccc([C@H](NC(=O)[C@H](CCCCN)NC(=O)[C@H](CCCNC(=N)N)NC(=O)c2cccs2)C(N)=O)cc1 | 17.9 |
| CN(Cc1ccccc1)C(=O)N[C@@H](CCCCN)C(=O)N[C@@H](CCCCN)C(=O)N[C@@H](CCCNC(=N)N)C(N)=O | 7.4 |
| N=C(N)NCCC[C@H](NC(=O)[C@H](CCCCN)NC(=O)[C@H](CCCCN)NC(=O)Cc1ccccc1)C(=O)NCCO (PhAc-Lys-Lys-Arg-NHCH2CH2OH) | 10.8 |
| N=C(N)NCCC[C@H](NC(=O)c1cccs1)C(=O)N[C@@H](CCCCN)C(=O)N[C@H](C(N)=O)c1ccc(OC2CCc3ccccc32)cc1 (mixture of isomers) | 6.4 |
| N=C(N)NCCC[C@H](NC(=O)c1cccs1)C(=O)N[C@@H](CCCCN)C(=O)NCc1ccc(OCc2ccc(C(F)(F)F)cc2)cc1 | 8.2 |
| NCCCCC(NC(=O)Cc1ccccc1)C(=O)N[C@@H](CCCCN)C(=O)NC(C(=O)NCc1ccccc1)c1ccc(OCc2ccc(C(F)(F)F)cc2)cc1 (single isomer, unassigned) | 1.12 |
| NCCCC[C@H](NC(=O)Cc1ccccc1)C(=O)N[C@@H](CCCCN)C(=O)N[C@H](C(=O)NCCc1ccccc1)c1ccc(OCc2ccc(C(F)(F)F)cc2)cc1 | 0.62 |

— ChEMBL document CHEMBL5154725, “SAR evolution towards potent C-terminal carboxamide peptide inhibitors of Zika virus NS2B-NS3 protease” (Bioorg Med Chem, 2022)
